As a reminder, the IC50 is the midpoint of a concentration-inhibition curve. As usually defined, the half-life is how long it takes for the measured level to halve.

Series [1] in a line: Cytotoxicity against human HaCaT cells assessed as reduction in cell viability by MTT assay. The format is toxicity, cell-based. For orientation: Tetrazolium assays rely on reduction of a dye to a coloured formazan, in cell work by metabolically active cells.
Series [2] in a line: Cytotoxicity against rat PC-12 cells assessed as reduction in cell viability by MTT assay. Format: toxicity, cell-based.
Series [3] relates to PC-12. Kind of series: Neuroprotective activity against SNP induced rat PC-12 cells assessed as increase in cell viability at 10 uM preincubated for 2 hrs followed by SNP stimulation for 24 hrs by MTT assay relative to control. The format is functional.
In series [4] the test system is PC-12. The series can be described thus: Neuroprotective activity against SNP induced rat PC-12 cells assessed as increase in cell viability at 5 uM preincubated for 2 hrs followed by SNP stimulation for 24 hrs by MTT assay relative to control. The format is functional.
For series [5], the system named is PC-12. The series can be described thus: Neuroprotective activity against SNP induced rat PC-12 cells assessed as increase in cell viability at 1 uM preincubated for 2 hrs followed by SNP stimulation for 24 hrs by MTT assay relative to control. Format: functional.
Series [6] is described as follows: Plasma protein binding in human plasma at 10 uM incubated for 6 hrs by LC-MS/MS based equilibrium dialysis method. Format: ADME, cell-free. To be noted: read-out: PPB (converted). A general note: Equilibrium dialysis compares concentrations on both sides of a semipermeable membrane.
The nature of series [7]: Plasma protein binding in Sprague-Dawley rat plasma at 10 uM incubated for 6 hrs by LC-MS/MS based equilibrium dialysis method. The format is ADME, cell-free. Conditions: read-out: PPB (converted).
The subject of a further series is Rattus norvegicus. The series can be described thus: Neuroprotective activity in Sprague-Dawley rat model of middle cerebral artery occlusion-induced ischemia-reperfusion injury assessed as decrease in cerebral infarct volume at 5 mg/kg, ip preincubated for 1 hrs followed by MCAO operation and further incubated with compound for 4 hrs after reperfusion by TTC staining based assay. Format: functional. Also noted: scale not given: the % may be the effect or the level left. Conditions: time 5 hrs.

A short description of series [8]: Metabolic stability in human plasma assessed as parent compound remaining at 200 uM measured after 15 min by LC-MS/MS analysis relative to control. The format is ADME, cell-free. Conditions: read-out: Stability.
Series [9] in a line: Metabolic stability in human plasma assessed as parent compound remaining at 200 uM measured after 60 min by LC-MS/MS analysis relative to control. Format: ADME, cell-free. Conditions: read-out: Stability.
Series [10] in a line: Metabolic stability in human plasma assessed as parent compound remaining at 200 uM measured after 90 min by LC-MS/MS analysis relative to control. Format: ADME, cell-free. Conditions: read-out: Stability.
The nature of series [11]: Metabolic stability in human plasma assessed as parent compound remaining at 200 uM measured after 120 min by LC-MS/MS analysis relative to control. Format: ADME, cell-free. Conditions: read-out: Stability.
Series [12] in a line: Metabolic stability in human plasma assessed as half life at 200 uM by LC-MS/MS analysis relative to control. The format is ADME, cell-free.

As for `CCc1ccc(-n2nc(-c3ccc(C(F)(F)F)cc3O)nc2-c2ccccc2O)cc1`, the IC50 in series [1] is 57 µM; in series [2], 147 µM. In addition, the Activity with PC-12 [3] was 106.61%; in the series with PC-12 [4] it was 95.36%; in the series on PC-12 [5], 64.43%.
As for `Oc1cc(C(F)(F)F)ccc1-c1nc(-c2ccccc2O)n(-c2ccccc2C(F)(F)F)n1`, the Activity in the series on PC-12 [3] was found to be 92.2%; in the series on PC-12 [4] it was 80.01%; with PC-12 [5] it was 70.97%.
Regarding `CC(C)c1ccc(-n2nc(-c3ccc(C(F)(F)F)cc3O)nc2-c2ccccc2O)cc1`, the IC50 in series [1] is 51.4 µM; in [2] it was 144 µM. The Activity in the series on PC-12 [3] is reported as 108%; in the series with PC-12 [4], 100.41%; with PC-12 [5], 69.66%.
In the case of `CC(=O)N1CCN(c2ccc(OCC3COC(Cn4ccnc4)(c4ccc(Cl)cc4Cl)O3)cc2)CC1` (configuration not stated) [KETOCONAZOLE], the fraction unbound at 6 h, 10 µM in series [6] was 0.0128; in series [7], 0.0032.
In the case of `Oc1cc(C(F)(F)F)ccc1-c1nc(-c2ccccc2O)n(-c2ccc(C(F)(F)F)cc2)n1`, the Activity is reported as 101.67% in the series with PC-12 [3], 90.51% with PC-12 [4] and 70.66% in the series with PC-12 [5].
In the case of `Cc1ccc(-n2nc(-c3ccc(C(F)(F)F)cc3O)nc2-c2ccccc2O)c(C)c1`, the IC50 came to 94.8 µM in series [1] and 230 µM in series [2]. Besides, the figures for the Activity in the series on PC-12 [3], with PC-12 [4] and with PC-12 [5] were 106.25%, 93.31% and 73.72%, respectively.
For `Oc1cc(C(F)(F)F)ccc1-c1nc(-c2ccccc2O)n(-c2ccccc2Cl)n1`, the Activity in the series with PC-12 [3] is 102.19%; in the series on PC-12 [4] it was 90.63%; in the series with PC-12 [5], 70.08%.
Taken in the same sequence, the figures for `CC(C)(C)c1ccc(-n2nc(-c3ccc(C(F)(F)F)cc3O)nc2-c2ccccc2O)cc1` were 81.14%, 77.77% and 67.29%.
Consider `COc1ccc(-n2nc(-c3ccc(C(F)(F)F)cc3O)nc2-c2ccccc2O)cc1`, for which the results for the Activity in the series with PC-12 [3], with PC-12 [4] and in the series on PC-12 [5] were 98.85%, 86.56% and 69.04%, respectively.
For `Oc1cc(C(F)(F)F)ccc1-c1nc(-c2ccccc2O)n(-c2ccc(Br)cc2)n1`, the IC50 was determined as 29.6 µM in [1] and 66.8 µM in series [2]. Besides, the Activity in the series on PC-12 [3] came out at 100.49%; in the series with PC-12 [4], 89.76%; with PC-12 [5], 69.35%.
`Oc1cc(C(F)(F)F)ccc1-c1nc(-c2ccccc2O)n(-c2ccc(I)cc2)n1`: the IC50 in series [1] stood at 32.1 µM; in series [2], 73.3 µM. Also, the Activity in the series on PC-12 [3] stood at 104.51%; in the series with PC-12 [4], 94.41%; in the series with PC-12 [5] it was 70.13%.
For the compound `N#Cc1ccc(-n2nc(-c3ccc(C(F)(F)F)cc3O)nc2-c2ccccc2O)cc1`, the Activity in the series on PC-12 [3] was 98.91%; with PC-12 [4], 86.8%; in the series on PC-12 [5] it was 66.6%.
Take `Oc1cc(C(F)(F)F)ccc1-c1nc(-c2ccccc2O)n(-c2ccc(F)cc2F)n1`: the Activity with PC-12 [3] was found to be 97.86%; with PC-12 [4], 83.53%; in the series on PC-12 [5] it was 65.92%.
As for `Oc1cc(C(F)(F)F)ccc1-c1nc(-c2ccccc2O)n(-c2cccc(F)c2)n1`, the Activity with PC-12 [3] is given as 98.25%; in the series with PC-12 [4] it was 87.66%; in the series on PC-12 [5] it was 67.24%.
Consider `Oc1ccccc1-c1nc(-c2ccc(C(F)(F)F)cc2)no1`, for which the values for the Activity with PC-12 [3], in the series on PC-12 [4] and in the series with PC-12 [5] were 84.7%, 81.39% and 75.88%, respectively.
Regarding `Cc1ccc(-n2nc(-c3ccc(C(F)(F)F)cc3O)nc2-c2ccccc2O)cc1`, the IC50 in [1] was 81.8 µM; in series [2] it was 113 µM. In addition, the Activity came to 102.45% with PC-12 [3], 94.12% in the series on PC-12 [4] and 71.49% in the series with PC-12 [5].
Take `Oc1cc(C(F)(F)F)ccc1-c1nc(-c2ccccc2O)n(-c2ccccc2F)n1`: the Activity was 100.18% with PC-12 [3], 86.63% with PC-12 [4] and 63.42% in the series with PC-12 [5].
Regarding `Oc1cc(C(F)(F)F)ccc1-c1nc(-c2ccccc2O)n(-c2ccc(F)cc2)n1`, the figures for the Activity in the series with PC-12 [3], in the series on PC-12 [4] and in the series on PC-12 [5] were 99.83%, 86.71% and 67.16%, respectively.
Take `COc1cccc(-n2nc(-c3ccc(C(F)(F)F)cc3O)nc2-c2ccccc2O)c1`: the IC50 in series [1] was 81.1 µM; in series [2], 56.4 µM. Also, the Activity worked out at 105.81% in the series with PC-12 [3], 96.76% in the series with PC-12 [4] and 68.27% in the series on PC-12 [5].
For `Oc1cc(C(F)(F)F)ccc1-c1nc(-c2ccccc2O)n(-c2cccc(C(F)(F)F)c2)n1`, the IC50 was 54.3 µM in series [1] and 49.7 µM in series [2]. Also, the Activity in the series on PC-12 [3] is reported as 99.9%; in the series on PC-12 [4] it was 92.2%; in the series on PC-12 [5] it was 71.47%.
On to `Oc1cc(C(F)(F)F)ccc1-c1nc(-c2ccccc2O)n(-c2cc(F)cc(F)c2)n1`, for which the values for the IC50 in series [1] and in series [2] were 45.4 µM and 53.7 µM, respectively. For the same compound, the Activity in the series with PC-12 [3] is on record as 106.29%; in the series on PC-12 [4] it was 100.23%; in the series on PC-12 [5], 75.47%.
As to `CC1=NN(c2ccccc2)C(=O)C1` [EDARAVONE], the Activity with PC-12 [3] is 80.25%; in the series with PC-12 [4] it was 70.3%; in the series with PC-12 [5], 58.41%; with Rattus norvegicus it was 12.77%.
`COc1ccccc1-n1nc(-c2ccc(C(F)(F)F)cc2O)nc1-c1ccccc1O`: the Activity in the series on PC-12 [3] is 96.2%; in the series with PC-12 [4], 85.59%; in the series with PC-12 [5], 70.74%.
Take `Oc1cc(C(F)(F)F)ccc1-c1nc(-c2ccccc2O)n(-c2ccc(OC(F)(F)F)cc2)n1`: the Activity is reported as 92.54% in the series on PC-12 [3], 84.94% in the series on PC-12 [4] and 65.49% in the series on PC-12 [5].
For `Oc1cc(C(F)(F)F)ccc1-c1nc(-c2ccccc2O)n(-c2ccc(Cl)cc2Cl)n1`, the results for the Activity in the series with PC-12 [3], in the series on PC-12 [4] and in the series on PC-12 [5] were 95.21%, 86.73% and 68.99%, respectively.
On to `CC(C)[N+](C)(CCOC(=O)C1c2ccccc2Oc2ccccc21)C(C)C` [PROPANTHELINE], for which the remaining at 0.25 h, 200 µM in series [8] worked out at 63.4%. Besides, the remaining at 1 h, 200 µM in series [9] came out at 34.5%. The remaining at 1.5 h, 200 µM in [10] was determined as 17.3%. The remaining at 2 h, 200 µM in series [11] stood at 2.41%. Besides, the half-life at 200 µM in series [12] turned out to be 23.5 min.
`Oc1cc(C(F)(F)F)ccc1-c1nc(-c2ccccc2O)n(-c2cc(C(F)(F)F)cc(C(F)(F)F)c2)n1`: the Activity in the series with PC-12 [3] was 86.16%; in the series with PC-12 [4], 75.68%; with PC-12 [5], 68.89%.
In the case of `Oc1cc(C(F)(F)F)ccc1-c1nc(-c2ccccc2O)n(-c2ccc(Cl)cc2)n1`, the Activity was found to be 96.09% in the series on PC-12 [3], 87.25% in the series on PC-12 [4] and 67.99% in the series on PC-12 [5].
Taken in the same sequence, the figures for `Oc1cc(C(F)(F)F)ccc1-c1nc(-c2ccccc2O)n(-c2cccc(Cl)c2)n1` were 100.29%, 92.73% and 72.33%.
